# Laboratory results: PubChem BioAssay (NCI)
#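 All cell lines were grown in 96-well plates and treated with compound for 48 hours. GI50: concentration for 50% inhibition of growth. Definition used: TGI = concentration required for complete inhibition of growth.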
# Key:
# Assay in all cases: DTP human tumour cell line panel, 48 h
# [1] = system: MALME-3M melanoma
# [2] = system: RPMI-8226 leukemia
# [3] = system: K-562 leukemia
# [4] = system: T-47D breast
# [5] = system: TK-10 renal
# [6] = system: LOX IMVI melanoma
# [7] = system: HL-60(TB) leukemia
# [8] = system: NCI-H522 lung
# [9] = system: HT29 colon
# [10] = system: 786-0 renal
# [11] = system: M14 melanoma
# [12] = system: A498 renal
# [13] = system: DU-145 prostate
# [14] = system: SW-620 colon
# [15] = system: HCT-15 colon
# [16] = system: HS 578T breast
# [17] = system: KM12 colon
# [18] = system: SF-295 CNS
# [19] = system: SNB-75 CNS
# [20] = system: NCI-H460 lung
# [21] = system: HOP-92 NSCLC
# [22] = system: UO-31 renal
# [23] = system: SK-OV-3 ovarian
# [24] = system: NCI/ADR-RES ovarian
# [25] = system: UACC-62 melanoma
# [26] = system: OVCAR-8 ovarian
# [27] = system: U251 CNS
# [28] = system: OVCAR-3 ovarian
# [29] = system: SK-MEL-5 melanoma
# [30] = system: RXF 393 renal
# [31] = system: SF-539 CNS
# [32] = system: HOP-62 NSCLC
# [33] = system: MCF7 breast
# [34] = system: SF-268 CNS
# [35] = system: MDA-MB-435
# [36] = system: NCI-H23 lung
# [37] = system: COLO 205 colon
# [38] = system: SK-MEL-28 melanoma
# [39] = system: UACC-257 melanoma
# [40] = system: PC-3 prostate
# [41] = system: SN12C renal
# [42] = system: SNB-19 CNS
# [43] = system: NCI-H226 lung
# [44] = system: SR leukemia
# [45] = system: EKVX NSCLC
# [46] = system: MDA-MB-231 breast
# [47] = system: ACHN renal
# [48] = system: HCC-2998 colon
# [49] = system: HCT-116 colon
# [50] = system: OVCAR-5 ovarian
# [51] = system: A549 NSCLC
# [52] = system: CCRF-CEM leukemia
# [53] = system: BT-549 breast
# [54] = system: MOLT-4 leukemia
# [55] = system: IGROV1 ovarian
# [56] = system: SK-MEL-2 melanoma
# [57] = system: CAKI-1 renal
# [58] = system: OVCAR-4 ovarian
smiles,measurement,setting,value
Cc1cc(Cl)ccc1NC(=O)c1cc2ccccc2cc1O,GI50,[1],342 nM
same,TGI,[1],> 100000 nM
same,GI50,[2],294 nM
same,TGI,[2],1180 nM
same,GI50,[3],419 nM
same,TGI,[3],> 100000 nM
same,GI50,[4],852 nM
same,TGI,[4],> 26800 nM
same,GI50,[5],1560 nM
same,TGI,[5],> 100000 nM
same,GI50,[6],539 nM
same,TGI,[6],> 100000 nM
same,GI50,[7],435 nM
same,TGI,[7],3470 nM
same,GI50,[8],304 nM
same,TGI,[8],> 29400 nM
same,GI50,[9],12300 nM
same,TGI,[9],> 100000 nM
same,GI50,[10],1190 nM
same,TGI,[10],> 100000 nM
same,GI50,[11],657 nM
same,TGI,[11],> 100000 nM
same,GI50,[12],220 nM
same,TGI,[12],1400 nM
same,GI50,[13],1150 nM
same,TGI,[13],> 100000 nM
same,GI50,[14],1590 nM
same,TGI,[14],> 100000 nM
same,GI50,[15],641 nM
same,TGI,[15],> 100000 nM
same,GI50,[16],1310 nM
same,TGI,[16],> 100000 nM
same,GI50,[17],1910 nM
same,TGI,[17],> 44000 nM
same,GI50,[18],2560 nM
same,TGI,[18],> 28600 nM
same,GI50,[19],7140 nM
same,TGI,[19],> 100000 nM
same,GI50,[20],511 nM
same,TGI,[20],> 100000 nM
same,GI50,[21],146 nM
same,TGI,[21],545 nM
same,GI50,[22],405 nM
same,TGI,[22],> 100000 nM
same,GI50,[23],2110 nM
same,TGI,[23],> 100000 nM
same,GI50,[24],433 nM
same,GI50,[25],354 nM
same,TGI,[25],> 100000 nM
same,GI50,[26],882 nM
same,TGI,[26],> 100000 nM
same,GI50,[27],503 nM
same,TGI,[27],> 27500 nM
same,GI50,[28],369 nM
same,TGI,[28],> 34900 nM
same,GI50,[29],373 nM
same,TGI,[29],2430 nM
same,GI50,[30],1180 nM
same,TGI,[30],8600 nM
same,GI50,[31],783 nM
same,TGI,[31],> 100000 nM
same,GI50,[32],2680 nM
same,TGI,[32],> 100000 nM
same,GI50,[33],1570 nM
same,TGI,[33],> 100000 nM
same,GI50,[34],1910 nM
same,TGI,[34],> 100000 nM
same,GI50,[35],555 nM
same,TGI,[35],> 100000 nM
same,GI50,[36],295 nM
same,TGI,[36],> 100000 nM
same,GI50,[37],6460 nM
same,TGI,[37],30500 nM
same,GI50,[38],767 nM
same,TGI,[38],> 100000 nM
same,GI50,[39],611 nM
same,TGI,[39],3840 nM
same,GI50,[40],875 nM
same,TGI,[40],28400 nM
same,GI50,[41],377 nM
same,TGI,[41],> 100000 nM
same,GI50,[42],736 nM
same,TGI,[42],> 100000 nM
same,GI50,[43],930 nM
same,TGI,[43],> 100000 nM
same,GI50,[44],443 nM
same,TGI,[44],8770 nM
same,GI50,[45],2610 nM
same,TGI,[45],> 100000 nM
same,GI50,[46],1010 nM
same,TGI,[46],25500 nM
same,GI50,[47],583 nM
same,TGI,[47],> 100000 nM
same,GI50,[48],3920 nM
same,TGI,[48],> 100000 nM
same,GI50,[49],405 nM
same,TGI,[49],> 100000 nM
same,GI50,[50],4200 nM
same,TGI,[50],> 100000 nM
same,GI50,[51],931 nM
same,TGI,[51],> 100000 nM
same,GI50,[52],1220 nM
same,TGI,[52],> 100000 nM
same,GI50,[53],673 nM
same,TGI,[53],> 100000 nM
same,GI50,[54],651 nM
same,TGI,[54],> 36200 nM
same,GI50,[55],993 nM
same,TGI,[55],> 100000 nM
same,GI50,[56],432 nM
same,GI50,[57],381 nM
same,TGI,[57],> 100000 nM
same,GI50,[58],1940 nM
same,TGI,[58],> 100000 nM
